Reference: publication PMC6470603, “Design and Synthesis of Matrine Derivatives as Novel Anti-Pulmonary Fibrotic Agents via Repression of the TGFβ/Smad Pathway” (Molecules, 2019)

How the values were obtained:
[1] = system: TGF-β1 induced total collagen accumulation in MRC-5 cells; assay: Sircol collagen assay: inhibition of TGF-β1-induced total collagen accumulation; type: cell-based, human; conditions: for IC50: Homo sapiens, MRC5, 10 ng/mL TGF-β1, 48 h, Sircol collagen assay; for SI, selectivity index (SI = CC50/IC50): MRC-5 cells
Procedure: Higher SI values indicates better safety profile.
MRC-5 cells in 1 × 10^5 cells/mL density were seeded in TC treated 96-well plates and allowed to reach confluence for 48 h. The cells were then starved using MEM-NEAA containing 0.2% BSA for 24 h. After starvation, the medium was changed to MEM-NEAA supplemented with 0.2% BSA, 100 μM L-Proline, 100 μM Ascorbic acid, with or without 10 ng/mL TGF-β1 (Peprotech) in the presence of vehicle or different concentrations of compounds. After 48 h incubation, the MRC-5 cells were washed with phosphate buffered saline (PBS) and fixed in −20 °C precooled methanol for 10 min. The cells were than washed with PBS before incubation in 0.1% PSR staining solution (0.1% Sirus red in saturated water solution of picric acid) for 1 h. The staining solution was then removed and the cells were washed with 0.1% acetic acid for three times. 200 μL of 0.1 mol/L sodium hydroxide solution were added to each well and the plates were placed on a rocking platform for 1 h. The optical density (OD) values at 550 nm were determined with an Infinite 2000 spectrophotometer.

[2] = Cytotoxicity assay (CCK-8); conditions: human, MRC-5 cells (human fetal lung fibroblasts)
Procedure: Cytotoxicity of all compounds were also determined against MRC-5 cells, so as to calculate selectivity index (SI, CC50/IC50).
MRC-5 cells in passage between 21 to 26 were used for experiments.
MRC-5 cells were incubated with different concentrations of compounds for 48 h, and then 10 μL of CCK-8 solution were added to each well. The cells were incubated at 37 °C for another 3 h before determining the OD values at 492 nm. DMSO at 0.1% v/v final concentration was used to solubilize the test compounds, except for compound 3b, 3c, and 3e, where 1% v/v DMSO was used to ensure complete solubilization.

MRC-5 fibroblasts = assay: Scratch (wound healing) assay, TGF-β1-induced fibroblast migration; type: cell-based, human; conditions: 1000 μM, 10 ng/mL TGF-β1, 24 h (TGF-β1 alone 85.0%)
Procedure: Fibroblast migration is the key event in pulmonary fibrogenesis. […] Inhibition of lung fibroblasts migration is a promising potential therapeutic target for IPF. We performed wound healing assay to investigate the inhibitory effect of 3f and matrine against fibroblast migration (Figure 7).
MRC-5 cells were seeded on 6-well plates and allowed to reach confluence for 48 h. The cell monolayer was gently scratched with a 1 mL pipette tip across the center of the well. After scratching, the cells were washed twice with medium to remove detached cells. The cells were then treated with or without 10 ng/mL TGF-β1 in the presence of vehicle or 10 μM 3f for 24 h. The gap area in wound region was quantitatively evaluated using ImageJ [30] and MRI wound healing tool plugin [31].

CNC1CC(=O)N2CC3CCCN4CCCC(C34)C2C1 (stereo not shown) [2a, 13-methylamino-matrine]
IC50 [1]: 65.3 ± 4.2 µM
SI, selectivity index (SI = CC50/IC50) [1]: 9.3
CC50 at 48 h [2]: 609 ± 29.8 µM

CN(C)C1CC(=O)N2CC3CCCN4CCCC(C34)C2C1 (stereo not shown) [2b, 13-dimethylamino-matrine]
IC50 [1]: 92.1 ± 1.9 µM
SI, selectivity index (SI = CC50/IC50) [1]: 6.8
CC50 at 48 h [2]: 624 ± 13.2 µM

O=C1CC(N2CCCC2)C[C@@H]2[C@H]3CCCN4CCC[C@@H](CN12)[C@@H]34 (stereo partly shown) [2c, 13-(pyrrolidine-1-yl)-matrine]
IC50 [1]: 256 ± 22.1 µM
SI, selectivity index (SI = CC50/IC50) [1]: 2.6
CC50 at 48 h [2]: 676 ± 49.1 µM

O=C1CC(N2CCOCC2)C[C@@H]2[C@H]3CCCN4CCC[C@@H](CN12)[C@@H]34 (stereo partly shown) [2d, 13-morpholinocyclohexane-matrine]
IC50 [1]: 138 ± 9.8 µM
SI, selectivity index (SI = CC50/IC50) [1]: 3.7
CC50 at 48 h [2]: 507 ± 25.3 µM

O=C1CC(n2ccc3ccccc32)C[C@@H]2[C@H]3CCCN4CCC[C@@H](CN12)[C@@H]34 (stereo partly shown) [3a, 13-(1H-indol-1-yl)-matrine]
IC50 [1]: 28.3 ± 3.9 µM
SI, selectivity index (SI = CC50/IC50) [1]: 3.8
CC50 at 48 h [2]: 107 ± 5.9 µM

Cc1cn(C2CC(=O)N3C[C@@H]4CCCN5CCC[C@@H]([C@H]45)[C@H]3C2)c2ccccc12 (stereo partly shown) [3b, 13-(3-methyl-1H-indol-1-yl)-matrine]
IC50 [1]: 39 ± 0.6 µM
SI, selectivity index (SI = CC50/IC50) [1]: 2.4
CC50 at 48 h [2]: 95.1 ± 6.5 µM

COc1cccc2c1ccn2C1CC(=O)N2C[C@@H]3CCCN4CCC[C@@H]([C@H]34)[C@H]2C1 (stereo partly shown) [3c, 13-(4-methoxy-1H-indol-1-yl)-matrine]
IC50 [1]: 44.7 ± 3.6 µM
SI, selectivity index (SI = CC50/IC50) [1]: 1.3
CC50 at 48 h [2]: 56.7 ± 3.9 µM

O=C1CC(n2ccc3c([N+](=O)[O-])cccc32)C[C@@H]2[C@H]3CCCN4CCC[C@@H](CN12)[C@@H]34 (stereo partly shown) [3d, 13-(4-nitro-1H-indol-1-yl)-matrine]
IC50 [1]: 4.3 ± 0.4 µM
SI, selectivity index (SI = CC50/IC50) [1]: 7.6
CC50 at 48 h [2]: 32.8 ± 2.7 µM

COc1ccc2c(ccn2C2CC(=O)N3C[C@@H]4CCCN5CCC[C@@H]([C@H]45)[C@H]3C2)c1 (stereo partly shown) [3e, 13-(5-methoxy-1H-indol-1-yl)-matrine]
IC50 [1]: 68.1 ± 5.5 µM
SI, selectivity index (SI = CC50/IC50) [1]: 1.9
CC50 at 48 h [2]: 128 ± 1.4 µM

O=C1CC(n2ccc3cc(Br)ccc32)C[C@@H]2[C@H]3CCCN4CCC[C@@H](CN12)[C@@H]34 (stereo partly shown) [3g, 13-(5-bromo-1H-indol-1-yl)-matrine]
IC50 [1]: 6.5 ± 1.2 µM
SI, selectivity index (SI = CC50/IC50) [1]: 2.8
CC50 at 48 h [2]: 18.2 ± 0.6 µM

N#Cc1ccc2c(ccn2C2CC(=O)N3C[C@@H]4CCCN5CCC[C@@H]([C@H]45)[C@H]3C2)c1 (stereo partly shown) [3h, 13-(5-cyano-1H-indol-1-yl)-matrine]
IC50 [1]: 72.1 ± 4 µM
SI, selectivity index (SI = CC50/IC50) [1]: 2.1
CC50 at 48 h [2]: 154 ± 11 µM

O=C1CC(n2ccc3cc([N+](=O)[O-])ccc32)C[C@@H]2[C@H]3CCCN4CCC[C@@H](CN12)[C@@H]34 (stereo partly shown) [3i, 13-(5-nitro-1H-indol-1-yl)-matrine]
IC50 [1]: 14.5 ± 1 µM
SI, selectivity index (SI = CC50/IC50) [1]: 4.5
CC50 at 48 h [2]: 65.4 ± 3.1 µM

O=C1CC(n2ccc3cnccc32)CC2C3CCCN4CCCC(CN12)C34 (stereo not shown) [3j, 13-(1H-pyrrolo[3,2-c]pyridin-1-yl)-matrine]
IC50 [1]: 16.7 ± 3.5 µM
SI, selectivity index (SI = CC50/IC50) [1]: 6.8
CC50 at 48 h [2]: 114 ± 5.9 µM

O=C1CC(n2ccc3ccc(F)cc32)C[C@@H]2[C@H]3CCCN4CCC[C@@H](CN12)[C@@H]34 (stereo partly shown) [3k, 13-(6-fluoro-1H-indol-1-yl)-matrine]
IC50 [1]: 23.1 ± 5.3 µM
SI, selectivity index (SI = CC50/IC50) [1]: 3.4
CC50 at 48 h [2]: 78.1 ± 3.4 µM

O=C1CC(n2ccc3ccc(Cl)cc32)C[C@@H]2[C@H]3CCCN4CCC[C@@H](CN12)[C@@H]34 (stereo partly shown) [3l, 13-(6-chloro-1H-indol-1-yl)-matrine]
IC50 [1]: 27 ± 1.4 µM
SI, selectivity index (SI = CC50/IC50) [1]: 1.7
CC50 at 48 h [2]: 45.8 ± 1.1 µM

O=C1CC(n2ccc3ccc([N+](=O)[O-])cc32)C[C@@H]2[C@H]3CCCN4CCC[C@@H](CN12)[C@@H]34 (stereo partly shown) [3m, 13-(6-nitro-1H-indol-1-yl)-matrine]
IC50 [1]: 19.3 ± 2.2 µM
SI, selectivity index (SI = CC50/IC50) [1]: 2.8
CC50 at 48 h [2]: 53.3 ± 1.9 µM

O=C1CC(n2ccc3ccncc32)C[C@@H]2[C@H]3CCCN4CCC[C@@H](CN12)[C@@H]34 (stereo partly shown) [3n, 13-(1H-pyrrolo[2,3-c]pyridin-1-yl)-matrine]
IC50 [1]: 69.5 ± 8.2 µM
SI, selectivity index (SI = CC50/IC50) [1]: 1.2
CC50 at 48 h [2]: 84.2 ± 2.2 µM

O=C1CCC[C@@H]2[C@H]3CCCN4CCC[C@@H](CN12)[C@@H]34 [Matrine]
IC50 [1]: 878 ± 68 µM
SI, selectivity index (SI = CC50/IC50) [1]: 2.8
closure of wound area over 24 h period (MRC-5 fibroblasts): 56.6%
CC50 at 48 h [2]: 2470 ± 103 µM

Cc1ccc(=O)n(-c2ccccc2)c1 [Pirfenidone, reference compound]
IC50 [1]: 1320 ± 98 µM
SI, selectivity index (SI = CC50/IC50) [1]: 3.1
CC50 at 48 h [2]: 4160 ± 239 µM
